Laboratory results taken from patent US20230331720A1, “MEDIUM- OR MACRO-CYCLIC BENZYL-SUBSTITUTED HETEROCYCLE DERIVATIVES AND THEIR USES AS OREXIN-2 RECEPTOR AGONISTS” (Orexia Therapeutics Limited, priority 2020, published 2023).

Molecular target: T1, human orexin type 2 receptor (hOX2R) (Homo sapiens, UniProt O43614)
T1 construct: expressed in transfected cells
T1 sequence (O43614 1-444): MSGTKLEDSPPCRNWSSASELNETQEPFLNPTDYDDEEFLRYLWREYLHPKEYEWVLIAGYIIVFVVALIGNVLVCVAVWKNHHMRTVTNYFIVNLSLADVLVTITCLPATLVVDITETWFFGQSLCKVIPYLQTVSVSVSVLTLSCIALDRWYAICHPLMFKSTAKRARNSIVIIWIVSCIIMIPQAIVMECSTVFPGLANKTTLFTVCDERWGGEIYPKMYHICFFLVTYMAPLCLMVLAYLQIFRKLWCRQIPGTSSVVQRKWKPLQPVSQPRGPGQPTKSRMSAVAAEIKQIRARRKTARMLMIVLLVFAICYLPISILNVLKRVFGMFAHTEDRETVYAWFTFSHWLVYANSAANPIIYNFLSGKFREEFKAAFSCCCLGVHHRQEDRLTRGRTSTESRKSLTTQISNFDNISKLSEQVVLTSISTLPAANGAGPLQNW
Assay: Orexin type 2 receptor agonist activity, intracellular Ca2+ (FLIPR TETRA)
Type: cell-based
Details: CHO cells expressing hOX2R; Ca2+ fluorescence area; read-out: hOx2 pEC50 (converted)
Protocol: Stable cell line generation. Obtainment of cells stably expressing either human orexin type 2 or human orexin type 1 receptor; to obtain a stable cell line the Orexin receptor cDNA was inserted into pcDNA3.1(+) plasmid vector and clones identified by G418 drug resistance selection. […] A single clone for OX2R-CHO and OX1R-CHO were grown in bulk and frozen to generate a cell bank for routine screening.
Measurement of orexin type 2 receptor agonist activity. Chinese hamster ovary (CHO) cells expressing human orexin type 2 receptor (hOX2R) or human orexin type 1 receptor (hOX1R) were seeded in each well of 384 well black clear bottom plates (BD Flacon) at 10,000 cells per well and cultured for 24 hr in an Ham's F12 (Gibco) medium containing 10% fetal calf serum (Sigma Aldrich) under the conditions of 37° C., 5% CO2. After removal of the medium, 50 μl of assay buffer 1 (0.1% bovine serum albumin (Sigma Aldrich), 20 mM HEPES (Molecular Dimensions), […] probenecid (Sigma Aldrich), 1× Calcium 5 dye (Molecular Devices) in Hank's balanced salt solution (Invitrogen)) was added, and the cells were incubated for 60 min under the conditions of 37° C., 5% CO2. A test compound was dissolved in dimethyl sulfoxide (Sigma Aldrich) to 10 mM, and then diluted with assay buffer 2 (20 mM HEPES, Hank's balanced salt solution, 0.1% bovine serum albumin). For the reaction, a test compound solution (10 μl) was added using Fluorescent Imaging Plate Reader TETRA (FLIPR TETRA: manufactured by Molecular Devices), a fluorescence value (excitation wavelength 488 nm, measurement wavelength 570 nm) of each well was measured every one second for 2 min, and the agonist activity was determined using the area of the fluorescence value as an indicator of intracellular Ca^2+ concentration. The agonist activity of the test compound was calculated assuming that the fluorescence value of the well added with only the dilution buffer was 0% and the fluorescence value of the well added with 10 nM human orexin A (Tocris) buffer was 100%. As used herein, Emax indicates the value at 10 μM concentration when orexin A is converted to a full agonist (maximum value of agonist activity: 100%).

CCS(=O)(=O)NC1CCN2C(=O)CCC/C=C/c3ccccc3-c3cccc(c3)CC12 (mixture of isomers) [Compound A1-36, (E/Z)—N-(5-oxo-4(2,1)-pyrrolidina-1(1,2),2(1,3)-dibenzenacyclodecaphan-9-en-4^3-yl)ethanesulfonamide]
EC50: 100 to 1000 nM

CS(=O)(=O)NC1CCCN2C(=O)CCCCc3ccccc3-c3cccc(c3)CC12 (racemic) [Compound A1-1, N-(5-oxo-4(2,1)-piperidina-1(1,2),2(1,3)-dibenzenacyclononaphane-4^3-yl)-methanesulfonamide]
EC50: 100 to 1000 nM

CN1CCOc2ccccc2-c2cccc(c2)CC2C(NS(C)(=O)=O)CCCN2C1=O (racemic) [Compound A1-2, N-(6-methyl-5-oxo-9-oxa-6-aza-4(2,1)-piperidina-1(1,2),2(1,3)-dibenzena-cyclo-nonaphane-4^3-yl)methanesulfonamide]
EC50: 100 to 1000 nM

CS(=O)(=O)N[C@@H]1CCCN2C(=O)CCCOc3ccccc3-c3cccc(c3)C[C@H]12 (racemic) [Compound A1-6, N-(5-oxo-9-oxa-4(2,1)-piperidina-1(1,2),2(1,3)-dibenzenacyclononaphane-4^3-yl)methanesulfonamide]
EC50: 10 to 100 nM

CS(=O)(=O)NC1CCN2C(=O)N3CC(CCc4ccccc4-c4cccc(c4)CC12)C3 (racemic) [Compound A1-13, N-(5-oxo-4-(2,1)-pyrrolidina-6-(1.3)-azetidina-1-(1,2),2-(1,3)-dibenzena-cyclooctaphane-4^3-yl)methanesulfonamide]
EC50: 10 to 100 nM

CS(=O)(=O)NC1CCN2C(=O)N3CC(CCCc4ccccc4-c4cccc(c4)CC12)C3 (racemic) [Compound A1-14, N-(5-oxo-4(2,1)-pyrrolidina-6(1,3)-azetidina-1(1,2),2(1,3)-dibenzenacyclo-nonaphane-4^3-yl)methanesulfonamide]
EC50: 10 to 100 nM

CS(=O)(=O)NC1CCCN2C(=O)NCCOc3ccccc3-c3cccc(c3)CC12 (racemic) [Compound A1-15, N-(5-oxo-9-oxa-6-aza-4(2,1)-piperidina-1(1,2),2(1,3)-dibenzenacyclo-nonaphane-4^3-yl)methanesulfonamide]
EC50: 1 to 10 nM

CCS(=O)(=O)NC1CCN2C(=O)NCCCCCc3c(F)cc(F)cc3-c3cccc(c3)CC12 (racemic) [Compound A1-16, N-(1^3,1^5-difluoro-5-oxo-6-aza-4(2,1)-pyrrolidina-1-(1,2),2-(1,3)-dibenzena-cycloundecaphane-4^3-yl)ethanesulfonamide]
EC50: 10 to 100 nM

CCS(=O)(=O)NC1CCN2C(=O)N(C)CCCCCc3ccccc3-c3cccc(c3)CC12 (racemic) [Compound A1-18, N-(6-methyl-5-oxo-6-aza-4(2,1)-pyrrolidina-1(1,2),2(1,3)-dibenzenacyclo-undecaphane-43-yl)ethanesulfonamide]
EC50: 1 to 10 nM

CCS(=O)(=O)NC1CCN2C(=O)CCCc3ccccc3-c3cccc(c3)CC12 (racemic) [Compound A1-19, N-(5-oxo-4(2,1)-pyrrolidina-1(1,2),2(1,3)-dibenzenacyclooctaphane-4^3-yl)ethanesulfonamide]
EC50: 100 to 1000 nM

CCS(=O)(=O)NC1CCN2C(=O)CCOCCCc3ccccc3-c3cccc(c3)CC12 (racemic) [Compound A1-20, N-(5-oxo-8-oxa-4(2,1)-pyrrolidina-1(1,2),2(1,3)-dibenzenacyclo-undecaphane-4^3-yl)ethanesulfonamide]
EC50: 100 to 1000 nM

CCS(=O)(=O)NC1CCN2C(=O)CC/C=C\c3ccccc3-c3cccc(c3)CC12 (racemic) [Compound A1-26, (E/Z)—N-(5-oxo-4(2,1)-pyrrolidina-1(1,2),2(1,3)-dibenzenacyclononaphan-8-en-4^3-yl)ethanesulfonamide]
EC50: 100 to 1000 nM

CS(=O)(=O)NC1CCCN2C(=O)NCCCCCc3ccccc3-c3cccc(c3)CC12 (racemic) [Compound A1-27, N-(5-oxo-6-aza-4(2,1)-piperidina-1(1,2),2(1.3)-dibenzenacyclo-undecaphane-4^3-yl)methanesulfonamide]
EC50: 1 to 10 nM

CS(=O)(=O)NC1CCCN2C(=O)CCCCCCc3ccccc3-c3cccc(c3)CC12 (racemic) [Compound A1-28, N-(5-oxo-4(2,1)-piperidina-1(1,2),2(1,3)-dibenzenacycloundecaphane-4^3-yl)methanesulfonamide]
EC50: 10 to 100 nM

CCS(=O)(=O)NC1CCN2C(=O)CCCCCCc3c(F)cc(F)cc3-c3cccc(c3)CC12 (racemic) [Compound A1-29, N-(1^3,1^5-difluoro-5-oxo-4(2,1)-pyrrolidina-1(1,2),2(1,3)-dibenzenacyclo-undecaphane-4^3-yl)ethanesulfonamide]
EC50: 100 to 1000 nM

CCS(=O)(=O)NC1CCN2C(=O)NCCOc3ccccc3-c3cccc(c3)CC12 (racemic) [Compound A1-30, N-(5-oxo-9-oxa-6-aza-4(2,1)-pyrrolidina-1(1,2),2(1,3)-dibenzenacyclo-nonaphane-4^3-yl)ethanesulfonamide]
EC50: 10 to 100 nM

CCS(=O)(=O)NC1CCN2C(=O)CCCOc3ccccc3-c3cccc(c3)CC12 (racemic) [Compound A1-31, N-(5-oxo-9-oxa-4(2,1)-pyrrolidina-1(1.2),2(1,3)-dibenzenacyclo-nonaphane-4^3-yl)ethanesulfonamide]
EC50: 100 to 1000 nM

CCS(=O)(=O)NC1CCN2C(=O)CCCCCCc3ccccc3-c3cccc(c3)CC12 (racemic) [Compound A1-39, N-(5-oxo-4(2,1)-pyrrolidina-1(1,2),2(1,3)-dibenzenacycloundecaphane-4^3-yl)ethanesulfonamide]
EC50: 1 to 10 nM

CCS(=O)(=O)NC1CCN2C(=O)CCC/C=C/Cc3ccccc3-c3cccc(c3)CC12 (racemic) [Compound A1-41, (E/Z)—N-(5-oxo-4(2,1)-pyrrolidina-1(1.2),2(1,3)-dibenzenacyclo-undecaphan-9-en-4^3-yl)ethanesulfonamide]
EC50: 10 to 100 nM

CCS(=O)(=O)NC1CCN2C(=O)CCCCCc3ccccc3-c3cccc(c3)CC12 (racemic) [Compound A1-48, N-(5-oxo-4(2,1)-pyrrolidina-1(1,2),2(1,3)-dibenzenacyclodecaphane-4^3-yl)ethanesulfonamide]
EC50: 10 to 100 nM

CCS(=O)(=O)NC1CCN2C(=O)NCCCCc3ccccc3-c3cccc(c3)CC12 (racemic) [Compound A1-49, N-(5-oxo-6-aza-4(2,1)-pyrrolidina-1(1,2),2(1,3)-dibenzenacyclodecaphane-4^3-yl)ethanesulfonamide]
EC50: 10 to 100 nM

CCS(=O)(=O)NC1CCN2C(=O)NCCCCCc3ccccc3-c3cccc(c3)CC12 (racemic) [Compound A1-50, N-(5-oxo-6-aza-4(2,1)-pyrrolidina-1(1,2),2(1,3)-dibenzenacyclo-undecaphane-43-yl)ethanesulfonamide]
EC50: 1 to 10 nM

CCS(=O)(=O)NC1CCN2C(=O)NC/C=C/Cc3ccccc3-c3cccc(c3)CC12 (racemic) [Compound A1-51, (E/Z)—N-(5-oxo-6-aza-4(2,1)-pyrrolidina-1(1,2),2(1.3)-dibenzenacyclo-decaphan-8-en4^3-yl)ethanesulfonamide]
EC50: 10 to 100 nM

CCS(=O)(=O)NC1CCN2C(=O)NCC/C=C/Cc3ccccc3-c3cccc(c3)CC12 (racemic) [Compound A1-52, (E/Z)—N-(5-oxo-6-aza-4(2,1)-pyrrolidina-1(1,2),2(1.3)-dibenzenacyclo-undecaphan-9-en-43-yl)ethanesulfonamide]
EC50: 1 to 10 nM

CCS(=O)(=O)NC1CCN2C(=O)CC/C=C/Cc3ccccc3-c3cccc(c3)CC12 (racemic) [Compound A1-53, (E/Z)—N-(5-oxo-4(2,1)-pyrrolidina-1(1,2),2(1,3)-dibenzenacyclodecaphan-8-en-4^3-yl)ethanesulfonamide]
EC50: 10 to 100 nM

CCS(=O)(=O)NC1CCN2C(=O)OCCCCCc3ccccc3-c3cccc(c3)CC12 (racemic) [Compound A1-54, N-(5-oxo-6-oxa-4(2,1)-pyrrolidina-1(1,2),2(1.3)-dibenzenacyclo-undecaphane-4^3-yl)ethanesulfonamide]
EC50: 10 to 100 nM

CCS(=O)(=O)NC1CCN2C(=O)OCC/C=C\Cc3ccccc3-c3cccc(c3)CC12 (racemic) [Compound A1-56, (E/Z)—N-(5-oxo-6-oxa-4(2,1)-pyrrolidina-1(1,2),2(1,3)-dibenzenacyclo-undecaphan-9-en-4^3-yl)ethanesulfonamide]
EC50: 100 to 1000 nM
